The MIC is the lowest concentration that inhibits growth of the organism. Broadly, the inhibition is the change of the read-out against control, counted positive when it falls. Usually Ki stands for the equilibrium dissociation constant of an inhibitor or competing ligand from its target. The IC50 is the concentration needed to halve the response being measured.

A value given as a limit tells only on which side of the number the result lay.

Assay [1] has as its system Escherichia coli. The assay can be described thus: Antibacterial activity against clinical isolate Escherichia coli K12 J53-ST10 618/15 expressing blaNDM-1 assessed as meropenem MIC at 59.20 uM measured after 20 hrs by broth microdilution assay (reference value: 24 mg/L). It is filed as functional. As to conditions: dose 59.2 µM.
For assay [2], the target named is Histone deacetylase 1 (Homo sapiens) (UniProt Q13547). In words: Inhibition of C-terminal 6His/FLAG-tagged human recombinant full-length HDAC1 (1 to 482(end) residues) at 10 uM using Boc-Lys-(Ac)-AMC as substrate incubated for 10 mins followed by substrate addition measured after 1 hr by fluorescence based analysis relative to control. As to conditions: time 70.0 min.
Sequence of Histone deacetylase 1 (Homo sapiens) (Q13547 whole entry): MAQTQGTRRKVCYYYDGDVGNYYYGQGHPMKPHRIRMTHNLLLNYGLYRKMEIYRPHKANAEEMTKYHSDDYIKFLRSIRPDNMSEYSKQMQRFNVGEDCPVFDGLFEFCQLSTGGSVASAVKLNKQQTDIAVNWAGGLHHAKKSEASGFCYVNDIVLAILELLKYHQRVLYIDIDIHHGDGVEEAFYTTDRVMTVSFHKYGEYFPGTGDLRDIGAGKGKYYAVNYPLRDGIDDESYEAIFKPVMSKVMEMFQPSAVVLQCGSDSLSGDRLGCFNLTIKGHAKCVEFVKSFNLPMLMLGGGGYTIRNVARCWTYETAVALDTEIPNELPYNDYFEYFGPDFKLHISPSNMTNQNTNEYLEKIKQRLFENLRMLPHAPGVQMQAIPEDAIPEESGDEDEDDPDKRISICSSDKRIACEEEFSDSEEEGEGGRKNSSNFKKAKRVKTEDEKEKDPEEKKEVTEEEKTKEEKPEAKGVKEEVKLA

Assay [3] has as its system Escherichia coli. In words: Antibacterial activity against clinical isolate Escherichia coli ST1012/10 expressing blaNDM-1 co-expressing blaTEM-1/blaCTX-M-15/blaOXA-1 and blaOXA-2 assessed as meropenem MIC at 29.60 uM measured after 20 hrs by broth microdilution assay (reference value: 12 mg/L). Type of assay: functional. As to conditions: dose 29.6 µM. (Broth dilution looks for growth in wells or tubes with falling amounts of substance.)

Assay [4] has as its system Klebsiella pneumoniae. In words: Antibacterial activity against clinical isolate Klebsiella pneumoniae ST23213/19 expressing blaNDM-1 co-expressing blaOXA-48/blaSHV-11/blaCTX-M-15 and blaOXA-1 assessed as meropenem MIC at 29.60 uM measured after 20 hrs by broth microdilution assay (reference value: 12 mg/L). Type of assay: functional. Conditions: dose 29.6 µM.
The subject of assay [5] is Escherichia coli. In words: Antibacterial activity against clinical isolate Escherichia coli K12 J53-ST10 684/18 expressing blaNDM-1 co-expressing blaCMY-2 and blaOXA-10 assessed as meropenem MIC at 59.20 uM measured after 20 hrs by broth microdilution assay (reference value: 24 mg/L). It is filed as functional. As to conditions: dose 59.2 µM.
For assay [6], the system named is Klebsiella pneumoniae. In words: Antibacterial activity against clinical isolate Klebsiella pneumoniae ST1493/10 expressing blaNDM-1 co-expressing blaCMY-2like/blaTEM-1/blaCTX-M-15/blaSHV-28/blaOXA-1 and blaOXA-9 assessed as meropenem MIC at 59.20 uM measured after 20 hrs by broth microdilution assay (reference value: 24 mg/L). It is filed as functional. Conditions: dose 59.2 µM.

For assay [7], the target named is T1, 72 kDa type IV collagenase (Homo sapiens, UniProt P08253). The assay can be described thus: Binding affinity to human recombinant MMP-2 CD assessed as inhibition constant using OMNIMMP as substrate incubated for 30 mins by fluorescence based analysis.
Target sequence in this assay (P08253 whole entry): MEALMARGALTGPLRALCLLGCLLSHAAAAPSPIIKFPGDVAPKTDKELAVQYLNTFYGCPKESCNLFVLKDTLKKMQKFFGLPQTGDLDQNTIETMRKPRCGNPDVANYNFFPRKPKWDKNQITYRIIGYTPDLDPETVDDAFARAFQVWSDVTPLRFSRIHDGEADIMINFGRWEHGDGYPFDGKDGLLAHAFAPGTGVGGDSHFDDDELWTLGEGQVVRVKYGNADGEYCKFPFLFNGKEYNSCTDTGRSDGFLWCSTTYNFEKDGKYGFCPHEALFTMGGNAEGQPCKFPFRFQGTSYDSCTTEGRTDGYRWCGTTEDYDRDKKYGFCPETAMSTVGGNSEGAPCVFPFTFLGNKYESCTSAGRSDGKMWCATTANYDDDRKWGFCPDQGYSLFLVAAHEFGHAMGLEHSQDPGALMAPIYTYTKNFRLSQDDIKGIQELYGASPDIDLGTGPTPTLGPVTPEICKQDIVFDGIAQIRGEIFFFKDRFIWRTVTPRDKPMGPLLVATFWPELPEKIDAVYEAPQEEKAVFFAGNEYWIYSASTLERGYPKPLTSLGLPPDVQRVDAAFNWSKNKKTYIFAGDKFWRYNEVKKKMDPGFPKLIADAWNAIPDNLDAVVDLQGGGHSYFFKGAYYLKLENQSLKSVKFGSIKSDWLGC
Assay [8] concerns Escherichia coli. The assay can be described thus: Antibacterial activity against clinical isolate Escherichia coli K12 J53-ST10 699/15 expressing blaNDM-1 assessed as meropenem MIC at 29.60 uM measured after 20 hrs by broth microdilution assay (reference value: 12 mg/L). Conditions: dose 29.6 µM. Type of assay: functional.
Assay [9] relates to Klebsiella pneumoniae. In words: Antibacterial activity against clinical isolate Klebsiella pneumoniae 62/07 expressing blaVIM-19 co-expressing blaSHV-1/blaCTX-M-14 and blaCMY-4 assessed as meropenem MIC at 59.20 uM measured after 20 hrs by broth microdilution assay (reference value: 24 mg/L). Type of assay: functional. Conditions: dose 59.2 µM.
Assay [10] relates to Escherichia coli. The assay can be described thus: Antibacterial activity against clinical isolate Escherichia coli K12 J53-ST10 699/15 expressing blaNDM-1 assessed as meropenem MIC at 59.20 uM measured after 20 hrs by broth microdilution assay (reference value: 24 mg/L). Type of assay: functional. As to conditions: dose 59.2 µM.
Assay [11] can be described thus: Inhibition of GIM1 (unknown origin) incubated for 15 mins by absorbance based microplate reader analysis. The arrangement: species or system Bacteria.
In assay [12] the test system is Escherichia coli. In words: Antibacterial activity against clinical isolate Escherichia coli ST1012/10 expressing blaNDM-1 co-expressing blaTEM-1/blaCTX-M-15/blaOXA-1 and blaOXA-2 assessed as meropenem MIC at 59.20 uM measured after 20 hrs by broth microdilution assay (reference value: 24 mg/L). It is filed as functional. Conditions: dose 59.2 µM.
For assay [13], the system named is Escherichia coli. The assay can be described thus: Antibacterial activity against clinical isolate Escherichia coli K12 J53-ST10 618/15 expressing blaNDM-1 assessed as meropenem MIC at 29.60 uM measured after 20 hrs by broth microdilution assay (reference value: 12 mg/L). Type of assay: functional. As to conditions: dose 29.6 µM.
In assay [14] the test system is Escherichia coli. The assay can be described thus: Antibacterial activity against clinical isolate Escherichia coli 371/12 expressing blaNDM-7 co-expressing blaCTX-M-15 and blaOXA-1 assessed as meropenem MIC at 29.60 uM measured after 20 hrs by broth microdilution assay (reference value: 12 mg/L). It is filed as functional. Conditions: dose 29.6 µM.
In assay [15] the test system is Klebsiella pneumoniae. In words: Antibacterial activity against clinical isolate Klebsiella pneumoniae 62/07 expressing blaVIM-19 co-expressing blaSHV-1/blaCTX-M-14 and blaCMY-4 assessed as meropenem MIC at 29.60 uM measured after 20 hrs by broth microdilution assay (reference value: 12 mg/L). As to conditions: dose 29.6 µM. Type of assay: functional.
Assay [16] is described as follows: Inhibition of IMP-1 (unknown origin) expressed in Escherichia coli BL21-DE3 incubated for 15 mins by absorbance based microplate reader analysis. The arrangement: species or system Bacteria.
The subject of assay [17] is Klebsiella pneumoniae. In words: Antibacterial activity against clinical isolate Klebsiella pneumoniae 50/20 expressing blaNDM-5 co-expressing blaTEM-1 and blaSHV-1 assessed as meropenem MIC at 59.20 uM measured after 20 hrs by broth microdilution assay (reference value: 24 mg/L). Type of assay: functional. Conditions: dose 59.2 µM.
Assay [18] deals with Klebsiella pneumoniae. In words: Antibacterial activity against clinical isolate Klebsiella pneumoniae 50/11 expressing blaNDM-1 co-expressing blaTEM-1/blaSHV-28/blaTEM-1/blaCTX-M-15 and blaOXA-1 assessed as meropenem MIC at 29.60 uM measured after 20 hrs by broth microdilution assay (reference value: 12 mg/L). Type of assay: functional. Conditions: dose 29.6 µM.
The subject of assay [19] is Escherichia coli. The assay can be described thus: Antibacterial activity against clinical isolate Escherichia coli K12 J53-ST10 684/18 expressing blaNDM-1 co-expressing blaCMY-2 and blaOXA-10 assessed as meropenem MIC at 29.60 uM measured after 20 hrs by broth microdilution assay (reference value: 12 mg/L). It is filed as functional. Conditions: dose 29.6 µM.
The test system of assay [20] is Klebsiella pneumoniae. The assay can be described thus: Antibacterial activity against clinical isolate Klebsiella pneumoniae 50/20 expressing blaNDM-5 co-expressing blaTEM-1 and blaSHV-1 assessed as meropenem MIC at 29.60 uM measured after 20 hrs by broth microdilution assay (reference value: 12 mg/L). Type of assay: functional. Conditions: dose 29.6 µM.
The target of assay [21] is Carbonic anhydrase 2 (Homo sapiens) (UniProt P00918). The assay can be described thus: Inhibition of human CA2 at 10 uM using pNPA as substrate preincubated for 15 mins followed by substrate by absorbance based analysis relative to control.
Assay [22] has as its target T1, 72 kDa type IV collagenase. In words: Inhibition of human recombinant MMP-2 CD at 10 uM using OMNIMMP as substrate incubated for 30 mins by fluorescence based analysis relative to control.
Target sequence in this assay (P08253 110-660 limits assumed): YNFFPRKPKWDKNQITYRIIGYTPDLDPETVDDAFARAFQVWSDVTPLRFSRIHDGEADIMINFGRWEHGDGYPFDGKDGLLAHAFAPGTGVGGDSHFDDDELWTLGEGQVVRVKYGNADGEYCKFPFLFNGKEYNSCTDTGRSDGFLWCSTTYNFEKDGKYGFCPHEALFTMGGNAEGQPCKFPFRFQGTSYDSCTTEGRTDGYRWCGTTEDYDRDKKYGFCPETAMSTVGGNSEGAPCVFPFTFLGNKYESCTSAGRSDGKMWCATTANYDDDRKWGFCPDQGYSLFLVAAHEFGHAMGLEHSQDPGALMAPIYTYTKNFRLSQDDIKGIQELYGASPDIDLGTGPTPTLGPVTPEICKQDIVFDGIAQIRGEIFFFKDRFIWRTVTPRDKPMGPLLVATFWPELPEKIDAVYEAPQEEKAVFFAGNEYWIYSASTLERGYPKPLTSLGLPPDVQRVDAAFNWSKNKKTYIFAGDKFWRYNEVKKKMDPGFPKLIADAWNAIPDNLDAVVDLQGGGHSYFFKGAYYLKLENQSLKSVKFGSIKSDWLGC
Assay [23] has as its system Escherichia coli. In words: Antibacterial activity against clinical isolate Escherichia coli K12 J53-ST10 696/17 expressing blaNDM-1 co-expressing blaCMY-4 assessed as meropenem MIC at 29.60 uM measured after 20 hrs by broth microdilution assay (reference value: 12 mg/L). As to conditions: dose 29.6 µM. Type of assay: functional.
For assay [24], the system named is Klebsiella pneumoniae. The assay can be described thus: Antibacterial activity against clinical isolate Klebsiella pneumoniae ST23213/19 expressing blaNDM-1 co-expressing blaOXA-48/blaSHV-11/blaCTX-M-15 and blaOXA-1 assessed as meropenem MIC at 59.20 uM measured after 20 hrs by broth microdilution assay (reference value: 24 mg/L). Type of assay: functional. Conditions: dose 59.2 µM.

Assay [25] in a line: Inhibition of VIM-2 (unknown origin) incubated for 15 mins by absorbance based microplate reader analysis. The arrangement: species or system Bacteria.
The test system of assay [26] is Acinetobacter baumannii. The assay can be described thus: Antibacterial activity against clinical isolate Acinetobacter baumannii IC 19/09 expressing blaNDM-1 co-expressing blaOXA-64 assessed as meropenem MIC at 29.60 uM measured after 20 hrs by broth microdilution assay (reference value: 12 mg/L). Type of assay: functional. Conditions: dose 29.6 µM.
Assay [27] concerns Klebsiella pneumoniae. The assay can be described thus: Antibacterial activity against clinical isolate Klebsiella pneumoniae 50/11 expressing blaNDM-1 co-expressing blaTEM-1/blaSHV-28/blaTEM-1/blaCTX-M-15 and blaOXA-1 assessed as meropenem MIC at 59.20 uM measured after 20 hrs by broth microdilution assay (reference value: 24 mg/L). As to conditions: dose 59.2 µM. It is filed as functional.

The subject of assay [28] is Klebsiella pneumoniae. The assay can be described thus: Antibacterial activity against clinical isolate Klebsiella pneumoniae ST1493/10 expressing blaNDM-1 co-expressing blaCMY-2like/blaTEM-1/blaCTX-M-15/blaSHV-28/blaOXA-1 and blaOXA-9 assessed as meropenem MIC at 29.60 uM measured after 20 hrs by broth microdilution assay (reference value: 12 mg/L). As to conditions: dose 29.6 µM. Type of assay: functional.

Assay [29] has as its system Escherichia coli. The assay can be described thus: Antibacterial activity against clinical isolate Escherichia coli K12 J53-ST10 696/17 expressing blaNDM-1 co-expressing blaCMY-4 assessed as meropenem MIC at 59.20 uM measured after 20 hrs by broth microdilution assay (reference value: 24 mg/L). As to conditions: dose 59.2 µM. Type of assay: functional.
Assay [30] concerns Escherichia coli. The assay can be described thus: Antibacterial activity against clinical isolate Escherichia coli 371/12 expressing blaNDM-7 co-expressing blaCTX-M-15 and blaOXA-1 assessed as meropenem MIC at 59.20 uM measured after 20 hrs by broth microdilution assay (reference value: 24 mg/L). It is filed as functional. Conditions: dose 59.2 µM.
Assay [31] has as its system Acinetobacter baumannii. The assay can be described thus: Antibacterial activity against clinical isolate Acinetobacter baumannii IC 19/09 expressing blaNDM-1 co-expressing blaOXA-64 assessed as meropenem MIC at 59.20 uM measured after 20 hrs by broth microdilution assay (reference value: 24 mg/L). Type of assay: functional. Conditions: dose 59.2 µM.
For assay [32], the target named is T1, 72 kDa type IV collagenase. The assay can be described thus: Inhibition of human recombinant MMP-2 CD using OMNIMMP as substrate incubated for 30 mins by fluorescence based analysis.
Target sequence in this assay (P08253 whole entry): as the sequence (P08253 whole entry) above

Regarding `O=C(O)c1ccc2c(-c3ccccc3)ccc(NS(=O)(=O)c3ccccn3)c2n1`, the MIC in the assay with Escherichia coli [1] is not above 0.125 µg/mL; in the assay on Escherichia coli [3], 0.5 µg/mL; in the assay on Klebsiella pneumoniae [4] it was 16 µg/mL; in the assay with Escherichia coli [5], not above 0.125 µg/mL; in the assay with Klebsiella pneumoniae [6] it was 1 µg/mL; in the assay with Escherichia coli [8] it was 1 µg/mL. Besides, the MIC was 0.25 µg/mL in the assay on Klebsiella pneumoniae [9]; not above 0.125 µg/mL in the assay with Escherichia coli [10]; not above 0.125 µg/mL with Escherichia coli [12]; not above 0.125 µg/mL with Escherichia coli [13]; 32 µg/mL in the assay with Escherichia coli [14]; 8 µg/mL with Klebsiella pneumoniae [15]. Moreover, the MIC in the assay with Klebsiella pneumoniae [17] was not above 0.125 µg/mL; with Klebsiella pneumoniae [18], 0.5 µg/mL; with Escherichia coli [19], 0.5 µg/mL; in the assay with Klebsiella pneumoniae [20], 2 µg/mL; in the assay with Escherichia coli [23], 0.25 µg/mL; in the assay with Klebsiella pneumoniae [24], 16 µg/mL. In addition, the minimum inhibitory concentration (MIC) is 16 µg/mL with Acinetobacter baumannii [26]; 0.25 µg/mL with Klebsiella pneumoniae [27]; 4 µg/mL in the assay on Klebsiella pneumoniae [28]; not above 0.125 µg/mL in the assay with Escherichia coli [29]; not above 0.125 µg/mL in the assay on Escherichia coli [30]; 1 µg/mL in the assay on Acinetobacter baumannii [31]. The results for the inhibition in [2], in assay [21] and in assay [22] were less than 5%, less than 5% and more than 90%, respectively. Further, in assay [7], the inhibition constant (Ki) came out at 7750 nM. Further, the IC50 worked out at 650 nM in assay [11], 690 nM in [16] and 400 nM in assay [25].

For the compound `O=C(O)[C@H](Cc1ccccc1)NS(=O)(=O)c1ccc(-c2ccccc2)cc1`, the IC50 in assay [32] turned out to be 266 nM.

For the origin of these results see ChEMBL document CHEMBL5365420, “Kinetics, Thermodynamics, and Structural Effects of Quinoline-2-Carboxylates, Zinc-Binding Inhibitors of New Delhi Metallo-β-lactamase-1 Re-sensitizing Multidrug-Resistant Bacteria for Carbapenems” (J Med Chem, 2023).
